Where “and” joins values, the source holds several entries; their conditions need not be identical. Equal values may be shown once. Inconclusive results and toxic doses are left out. Rule for the calls: active = survival T/C of 150% or more; inactive = T/C below 125% in these data.
Test system: P388 leukemia ip, CD2F1 mice, survival T/C
Test: NCI In Vivo Anticancer Drug Screen. Data for tumor model P388 Leukemia (intraperitoneal) in CD2F1 (CDF1) mice
Details: endpoint: median survival time, higher = longer survival
How it was run: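 Mice carrying the transplanted tumor received test compound or vehicle. Survival was recorded in each group, and the value is the treated-group measurement divided by that of the vehicle-treated control group.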

[1] = dose: 1.56 mg/kg/injection, schedule: Q01DX009 (ip), vehicle: saline with Tween-80
[2] = dose: 6.25 mg/kg/injection, schedule: Q01DX009 (ip), vehicle: saline with Tween-80
[3] = dose: 100.0 mg/kg/injection, schedule: Q01DX009 (ip), vehicle: Klucel (hydroxypropylcellulose) (HPC)
[4] = dose: 25.0 mg/kg/injection, schedule: Q01DX001 (ip), vehicle: saline with Tween-80
[5] = dose: 50.0 mg/kg/injection, schedule: Q01DX001 (ip), vehicle: saline with Tween-80
[6] = dose: 50.0 mg/kg/injection, schedule: Q01DX009 (ip), vehicle: saline with Tween-80
[7] = dose: 25.0 mg/kg/injection, schedule: Q01DX005 (ip), vehicle: Klucel (hydroxypropylcellulose) (HPC)
[8] = dose: 50.0 mg/kg/injection, schedule: Q01DX005 (ip), vehicle: Klucel (hydroxypropylcellulose) (HPC)
[9] = dose: 100.0 mg/kg/injection, schedule: Q01DX005 (ip), vehicle: Klucel (hydroxypropylcellulose) (HPC)
[10] = dose: 50.0 mg/kg/injection, schedule: Q01DX005 (ip), vehicle: saline with Tween-80
[11] = dose: 100.0 mg/kg/injection, schedule: Q01DX005 (ip), vehicle: saline with Tween-80
[12] = dose: 200.0 mg/kg/injection, schedule: Q01DX005 (ip), vehicle: saline with Tween-80

Measured: T/C

c1ccc([I+]c2ccccc2)cc1
inactive: dose: 0.65 mg/kg/injection, schedule: Q01DX009 (ip), vehicle: saline 95 % of control | dose: 1.25 mg/kg/injection, schedule: Q01DX009 (ip), vehicle: saline sonified 100 % of control | dose: 1.3 mg/kg/injection, schedule: Q01DX009 (ip), vehicle: saline 90 % of control | [1] 103 % of control | dose: 2.5 mg/kg/injection, schedule: Q01DX009 (ip), vehicle: saline sonified 118 % of control | dose: 2.5 mg/kg/injection, schedule: Q01DX009 (ip), vehicle: saline 109 % of control | dose: 2.6 mg/kg/injection, schedule: Q01DX009 (ip), vehicle: saline with Tween-80 106 % of control | dose: 3.13 mg/kg/injection, schedule: Q01DX009 (ip), vehicle: saline sonified 100 % of control | dose: 3.13 mg/kg/injection, schedule: Q01DX009 (ip), vehicle: saline with Tween-80 108 % of control | dose: 3.13 mg/kg/injection, schedule: Q04DX003 (ip), vehicle: saline 100 % of control | dose: 4.0 mg/kg/injection, schedule: Q01DX009 (ip), vehicle: saline with Tween-80 113 % of control | dose: 6.0 mg/kg/injection, schedule: Q01DX009 (ip), vehicle: saline with Tween-80 113 % of control | [2] 122 % of control and 91 % of control | dose: 6.25 mg/kg/injection, schedule: Q04DX003 (ip), vehicle: saline 118 % of control | dose: 12.5 mg/kg/injection, schedule: Q04DX003 (ip), vehicle: saline 118 % of control

O=c1oc2ccccc2cc1Cc1cc2ccccc2oc1=O
inactive: dose: 50.0 mg/kg/injection, schedule: Q01DX009 (ip), vehicle: Klucel (hydroxypropylcellulose) (HPC) 103 % of control | [3] 97 % of control

COc1ccc(S(=O)(=O)N=N/C=C2\C=CC=CN2O)cc1OC
inactive: [1] 104 % of control | dose: 3.12 mg/kg/injection, schedule: Q01DX009 (ip), vehicle: saline with Tween-80 103 % of control | [2] 103 % of control | dose: 12.5 mg/kg/injection, schedule: Q01DX009 (ip), vehicle: saline with Tween-80 100 % of control and 103 % of control and 90 % of control | [4] 100 % of control | dose: 25.0 mg/kg/injection, schedule: Q01DX009 (ip), vehicle: saline with Tween-80 110 % of control and 114 % of control and 117 % of control | [5] 109 % of control | [6] 119 % of control | dose: 100.0 mg/kg/injection, schedule: Q01DX001 (ip), vehicle: saline with Tween-80 118 % of control

COc1cc(CCCNC(C)=O)cc(OC)c1OC
inactive: dose: 25.0 mg/kg/injection, schedule: Q01DX005 (ip), vehicle: water 105 % of control | dose: 50.0 mg/kg/injection, schedule: Q01DX005 (ip), vehicle: water 98 % of control | dose: 100.0 mg/kg/injection, schedule: Q01DX005 (ip), vehicle: water 96 % of control | dose: 200.0 mg/kg/injection, schedule: Q01DX005 (ip), vehicle: water 98 % of control

O=c1[nH]cnc2nc(/N=N/SCCO)[nH]c12
inactive: [7] 104 % of control | [8] 110 % of control | [9] 119 % of control

CCCC(=O)Nc1ccccc1
inactive: [6] 100 % of control | dose: 100.0 mg/kg/injection, schedule: Q01DX009 (ip), vehicle: saline with Tween-80 100 % of control | dose: 200.0 mg/kg/injection, schedule: Q01DX009 (ip), vehicle: saline with Tween-80 93 % of control

c1cc2n[pH]nc2cn1 (centres undefined)
inactive: dose: 15.0 mg/kg/injection, schedule: Q01DX005 (ip), vehicle: saline 120 % of control | dose: 30.0 mg/kg/injection, schedule: Q01DX005 (ip), vehicle: saline 107 % of control

CC(=O)N=c1nc(N)nc2n(O)cc(-c3ccccc3)nc1-2
inactive: dose: 31.25 mg/kg/injection, schedule: Q01DX009 (ip), vehicle: saline with Tween-80 113 % of control | dose: 62.5 mg/kg/injection, schedule: Q01DX009 (ip), vehicle: saline with Tween-80 99 % of control | dose: 125.0 mg/kg/injection, schedule: Q01DX009 (ip), vehicle: saline with Tween-80 97 % of control

Cc1ccccc1/C=C1/C(=O)C(c2ccccc2)=C1c1ccccc1
inactive: dose: 100.0 mg/kg/injection, schedule: Q01DX001 (ip), vehicle: Klucel (hydroxypropylcellulose) (HPC) 105 % of control | dose: 200.0 mg/kg/injection, schedule: Q01DX001 (ip), vehicle: Klucel (hydroxypropylcellulose) (HPC) 106 % of control | dose: 400.0 mg/kg/injection, schedule: Q01DX001 (ip), vehicle: Klucel (hydroxypropylcellulose) (HPC) 100 % of control

Fc1ccc(NC(=S)SCc2ccc(Cl)c(Cl)c2)cc1F
inactive: dose: 12.5 mg/kg/injection, schedule: Q01DX009 (ip), vehicle: Klucel (hydroxypropylcellulose) (HPC) 124 % of control | [3] 116 % of control and 96 % of control

Cc1ccc(N2CC(=O)N3CCCN3C(=O)C2)cc1
inactive: dose: 6.25 mg/kg/injection, schedule: Q01DX005 (ip), vehicle: saline with Tween-80 98 % of control | dose: 12.5 mg/kg/injection, schedule: Q01DX005 (ip), vehicle: saline with Tween-80 100 % of control | dose: 25.0 mg/kg/injection, schedule: Q01DX005 (ip), vehicle: saline with Tween-80 102 % of control

O=[N+]([O-])c1cccc(/C=C/S(=O)(=O)Cc2ccccc2)c1
inactive: [10] 101 % of control | [11] 100 % of control | [12] 92 % of control

S=c1nc[nH]c2c1ncn2C1C=CCCC1 (centres undefined)
inactive: dose: 100.0 mg/kg/injection, schedule: Q04DX003 (ip), vehicle: saline with Tween-80 90 % of control | dose: 176.0 mg/kg/injection, schedule: Q01DX009 (ip), vehicle: saline with Tween-80 100 % of control | dose: 200.0 mg/kg/injection, schedule: Q04DX003 (ip), vehicle: saline with Tween-80 90 % of control | dose: 264.0 mg/kg/injection, schedule: Q01DX009 (ip), vehicle: saline with Tween-80 95 % of control | dose: 400.0 mg/kg/injection, schedule: Q01DX009 (ip), vehicle: saline with Tween-80 118 % of control | dose: 400.0 mg/kg/injection, schedule: Q04DX003 (ip), vehicle: saline with Tween-80 90 % of control

O=C(O)CS(=O)(=O)CCCCS(=O)(=O)CC(=O)O
inactive: dose: 50.0 mg/kg/injection, schedule: Q01DX009 (ip), vehicle: saline 104 % of control | dose: 100.0 mg/kg/injection, schedule: Q01DX009 (ip), vehicle: saline 103 % of control | dose: 200.0 mg/kg/injection, schedule: Q01DX009 (ip), vehicle: saline 100 % of control

C#CC(C)(C)NC(=O)NC12CC3CC(CC(C3)C1)C2
inactive: dose: 12.5 mg/kg/injection, schedule: Q01DX001 (ip), vehicle: saline with Tween-80 94 % of control | [4] 86 % of control | [5] 89 % of control

CCOC(=O)C12OC(=O)CC(NC1C(=O)OC(C)(C)C)C2O (centres undefined)
inactive: dose: 60.0 mg/kg/injection, schedule: Q01DX005 (ip), vehicle: saline 98 % of control | dose: 120.0 mg/kg/injection, schedule: Q01DX005 (ip), vehicle: saline 91 % of control | dose: 240.0 mg/kg/injection, schedule: Q01DX005 (ip), vehicle: saline 104 % of control

Nc1cc(Cl)cc2c1-c1ccc(Cl)cc1C2=O
inactive: [7] 96 % of control | [8] 91 % of control | [9] 90 % of control | dose: 200.0 mg/kg/injection, schedule: Q01DX005 (ip), vehicle: Klucel (hydroxypropylcellulose) (HPC) 89 % of control

COC1OC2COC(c3ccccc3)OC2C(N)C1O (centres undefined)
inactive: [10] 106 % of control | [11] 101 % of control | [12] 104 % of control

— PubChem BioAssay AID330 (DTP/NCI, 2004)
